According to patent US20050171005A1, “Methods and compositions for modulating beta-catenin phosphorylation” (priority 2002, published 2005):
Where a SMILES comes first, the peptide text is derived from it. The star is where a group is joined. Cbz = O=C(OCc1ccccc1)*

Experiments:
β-catenin [1] = format: cell-based, human; details: 293 cells; CKI-7 100 μM for 16 hr; H89 data not shown
Experimental: (§1) 293T cells were transiently transfected using the calcium phosphate procedure. The following expression vectors were used: Myc- or Flag-tagged β-catenin (0.5 μg) (a human β-catenin clone obtained from R. Grosschedl), Flag- or Myc-tagged axin (2 μg) (mouse cDNA provided by F. Costantini), HA-GSK3β or Flag-GSK3β (3.5 μg) (a rabbit clone obtained from J R Woodgett) [Woodgett, J. R. (1990) EMBO J 9: 2431-2438]. β-catenin mutants include DP, (S33, S37, T40, S45, S47 substituted to alanine) single point mutants (S29F, S33Y, S37A, T41A, S45F) and 45PKA (T41S, T42R, A43R). Additional vectors: Flag-WD, a dominant negative β-TrCP fragment (ΔF-box) [Yaron, A. et al. (1998) Nature 396: 590-594]; Flag-Dvl-1 (a mouse cDNA clone obtained from S-I Yanagawa) [Lee, J. S. et al. (1999) J Biol Chem 274: 21464-21470]; WT and dominant negative Xenopus CKIε (XCKIε-D128N) (provided by T. Shcwarz-Romond) [McKay, R. M. et al. (2001) Dev Biol 235: 378-387]. 24-48 hr after transfection, cells were harvested and processed for the various experiments. MG-132 (Sigma) was used at 20 μM for 5 hr; LiCl (40 mM) was added for 6 hr, and CKI-7 (100 μM) for 16 hr prior to harvesting. β-catenin, axin or GSK-30 in cell lysates were detected using anti-Myc (Ab-1, Oncogenes Research Products, 2 μg/ml), anti-Flag (M2, Sigma, 1 μg/ml) and anti-HA (12CA5 ascites fluid; 1:5000) antibodies, respectively. GFP expression was monitored with anti-GFP antibody (JL-8, Clontech, 1 μg/ml). In some experiments (FIG. 4) GSK-3β was detected using anti-GSK-3β monoclonal antibodies (clone 7, Transduction Laboratories, 0.1 μg/ml). Endogenous and exogenous β-catenin (FIGS. 5d and 6a) were detected with anti-β-catenin antibodies (clone 14, Transduction Laboratories) (0.25 μg/ml).
Western blot and mass spectrometry (MS). Three different commercial anti-β-catenin phospho-peptide antibodies were used: i) Anti-phospho-Thr41/Ser 45 (Cell Signaling Technology), a polyclonal antibody specific for both pT41 and pS45 (otp41,45). ii) Anti-phospho-Ser33/37/Thr41 (Cell Signaling Technology), a polyclonal antibody recognizing pS33 (αp33). These two polyclonal antibodies were used at a 1:1000 dilution, according to the manufacturer's instructions. iii) anti-phospho-Ser 33/37 (BC-22, Sigma), a monoclonal antibody specific for pS37 (used as ascites fluid at a 1:3000 dilution; αp37). Antibody specificities were determined by phosphopeptide inhibition studies. D^32S(PO4)GIHSGATTTAPS^45 abolished the αp33, but not the αp37 signal; D^32SGIHS(PO4)GATTTAPS^45 blocked the αp37 but not the αp33 signal. […] Proteins for MS analysis were immunopurified by M2 Flag-affinity beads (Sigma), separated by SDS-PAGE, Coomassie stained and the β-catenin bands were in-gel digested with endoproteinase Asp-N. The resulting peptides were desalted on small columns, eluted with 20% MeOH, 5% HCOOH, and analyzed by nanoelectrospray mass spectrometry [Yaron et al. (1998) id ibid.], using a quadrupole time-of-flight mass spectrometer (PE-Sciex, Canada).
GSK-3β is traditionally known to target the phosphorylation of +4P-primed substrates [Frame, S. et al. (2001) Mol Cell 7: 1321-1327], a specificity supported by recent structural studies of the enzyme [Dajani, R. et al (2001) Cell 105: 721-732]. The fact that the S45 phosphorylation site is not preceded by a +4P priming site led to the proposition that the molecular complex of axin and GSK-3β is capable of bypassing the priming requirement of the uncomplexed enzyme [Cohen and Frame (2001) id ibid.]. To assess the contribution of GSK-30 in axin-mediated S45 phosphorylation, two types of experiments were carried out. In the first set, 293 cells were incubated prior to harvesting with LiCl, a GSK-3β inhibitor capable of mimicking a Wnt effect [Klein, P. S. and D. A. Melton (1996) Proc Natl Acad Sci USA 93: 8455-8459; Stambolic, V. et al. (1996) Curr Biol 6: 1664-1668].

endogenous β-catenin = assay: Phosphorylation of endogenous β-catenin in proteasome-inhibited HeLa cells with kinase inhibitors; format: cell-based; details: H89 5 μM
Experimental: FIG. 5d: Effects of specific kinase inhibitors on the phosphorylation of endogenous β-catenin at S41,45 and S33 in HeLa cells. CKI-7 was used at 100 μM, H89 at 5 μM and LiCl at 40 mM. β-catenin was detected with anti-β-catenin antibody, or anti-phospho-p-catenin antibodies.
as §1
Western blot and mass spectrometry (MS). Three different commercial anti-β-catenin phospho-peptide antibodies were used: i) Anti-phospho-Thr41/Ser 45 (Cell Signaling Technology), a polyclonal antibody specific for both pT41 and pS45 (otp41,45). ii) Anti-phospho-Ser33/37/Thr41 (Cell Signaling Technology), a polyclonal antibody recognizing pS33 (αp33). […] Antibody specificities were determined by phosphopeptide inhibition studies. […]
In another set of experiments the in vivo role of CKI in S45 phosphorylation was analyzed, using two dominant negative CKIε constructs (dnXCKIε K85R and D128N) [McKay et al. (2001) id ibid.] and a specific CKI inhibitor (CKI-7) [Chijiwa, T. et al. (1989) J Biol Chem 264: 4924-4927]. […]

β-catenin [2] = assay: β-catenin degradation in the 293 axin/GSK-3β expression system (Western blot); format: cell-based, human; details: 293 cells, axin and GSK-3β overexpression, Myc-β-catenin; MG-132 20 μM for 5 hr
Experimental: as §1, with “T42R, A43R). […] MG-132 (Sigma)” for “T42R, A43R). Additional vectors: Flag-WD, a dominant negative β-TrCP fragment (ΔF-box) [Yaron, A. et al. (1998) Nature 396: 590-594]; Flag-Dvl-1 (a mouse cDNA clone obtained from S-I Yanagawa) [Lee, J. S. et al. (1999) J Biol Chem 274: 21464-21470]; WT and dominant negative Xenopus CKIε (XCKIε-D128N) (provided by T. Shcwarz-Romond) [McKay, R. M. et al. (2001) Dev Biol 235: 378-387]. 24-48 hr after transfection, cells were harvested and processed for the various experiments. MG-132 (Sigma)”, “(0.25 μg/ml). […]” for “(0.25 μg/ml).”

β-catenin [3] = assay: Okadaic acid treatment of HeLa, SW480 and SNU449 cells, Western blot with anti-phospho β-catenin antibodies; format: cell-based
Experimental: FIG. 7a: HeLa cells were incubated with MG132 with or without okadaic acid (1 μM for 3 hr). Cell lysates were analyzed by Western blotting with αp45 and αp33.
FIG. 7b: SNU449 cells [Satoh et al. (2000) id ibid.] were treated with okadaic acid (1 μM for 1 or 3 hr), and their lysates tested for S45 phosphorylation by Western blotting,
FIG. 7c: Okadaic Acid induces β-Catenin phosphorylation and degradation in the APC mutated cell line SW480.
Okadaic acid is a selective inhibitor of phosphatase PP2A, while it inhibits to a lower extent (10-50 fold less) phosphatase PP1. Proteasome-inhibited HeLa and SW480 cells (treated with 20 μM MG132) or Ser 37-mutated SNU 449 […] cells [Satoh et al. (2000) id ibid.] were treated with okadaic acid (1 μM) for 1 or 3 hr, harvested and their lysate analyzed by Western blot with anti-phospho β-catenin antibodies: anti-pSer45 and anti-pSer33 (for HeLa and RKO cells only). […] Yet, since S45 phosphorylation precedes the S33 phosphorylation, the okadaic effect may be reserved to S45. This is an example of a compound that can upregulate S45 phosphorylation, while Wnt3A downregulates the same phosphorylation event (FIG. 6a).

phosphatase PP1 = details: selective inhibitor of phosphatase PP2A; cited from earlier work
β-catenin [4] = assay: Wnt3A conditioned medium stimulation of L, SNU449, HeLa and Jurkat cells, β-catenin level and phosphorylation by Western blot; format: cell-based
Experimental: FIG. 6a: Wnt3A inhibits S45 phosphorylation. Mouse L cells, SNU449 hepatoma cells [Satoh et al. (2000) Nat Genet 24(3):245-50], HeLa cells and β-catenin transfected Jurkat T cells were incubated (5 hr) with conditioned medium of wt or Wnt3A secreting L cells [Shibamoto et al. (1998) Genes Cells 3: 659-670]. MG-132 or okadaic acid (OKA, 1 μM) were added to the indicated cultures. Endogenous (HeLa, L cells and SNU449) and exogenous (Jurkat) β-catenin was detected with anti-β-catenin antibody, or anti-phospho-β-catenin antibodies. The numbers under the different lanes are relative densitometry figures, referring to the signal intensity of untreated cultures.
The control of β-catenin stability is a major task of the Wnt pathway and is mediated through members of the conserved protein family dishevelled (Dvl 1,2,3) [Boutros and Mlodzik (1999) id ibid.]. […] To this end, several cell lines were first stimulated with Wnt3A [Roelink, H. and R. Nusse. (1991) Genes Dev 5: 381-388; Shibamoto, S. et al. (1998) id ibid.; Lee et al. (1999) id ibid.], and S45 phosphorylation was monitored by Western blot analysis. Wnt stimulation stabilized endogenous β-catenin in mouse L-cells (fibroblasts) (FIG. 6a, lanes 1,2) and exogenous β-catenin in Jurkat lymphocytes (lanes 5,6). […] (lanes 9-11). S45 phosphorylation of β-catenin was evident in proteasome-inhibited L cells (lane 3), Jurkat cells (lane 7) and HeLa cells (lane 14). It was also apparent in okadaic acid-treated SNU449 cells (OKA, lane 10).

O=S(=O)(NCCNC/C=C/c1ccc(Br)cc1)c1cccc2cnccc12 [H89]
constitutive S45 phosphorylation of 45PKA β-catenin (β-catenin [1]): inhibited | wt β-catenin phosphorylation (endogenous β-catenin): no effect

CC(C)C[C@@H](C=O)NC(=O)[C@H](CC(C)C)NC(=O)[C@H](CC(C)C)NC(=O)OCc1ccccc1 [MG-132] (Cbz-Leu-Leu-Leu-aldehyde)
β-catenin degradation (β-catenin [2]): blocked

C=C1[C@@H](O)[C@@H]2O[C@]3(CC[C@H](/C=C/[C@@H](C)[C@@H]4CC(C)=C[C@@]5(O[C@H](C[C@@](C)(O)C(=O)O)CC[C@H]5O)O4)O3)CC[C@H]2O[C@@H]1[C@@H](O)C[C@H](C)[C@H]1O[C@@]2(CCCCO2)CC[C@H]1C [okadaic acid]
β-Catenin phosphorylation and degradation (β-catenin [3]; APC mutated cell line SW480): induces | phosphorylation signal with anti-pSer45 (β-catenin [3]; MG132-treated HeLa and SW480 cells or SNU 449 cells, okadaic acid 1 μM for 1 or 3 hr): induces a massive phosphorylation signal | S45 phosphorylation of β-catenin (β-catenin [3]; SNU449 cells, okadaic acid 1 μM): apparent | phosphorylation signal with anti-pSer33 (β-catenin [3]; okadaic acid 1 μM for 1 or 3 hr, for HeLa and RKO cells only (so in the source)): induces a massive phosphorylation signal | inhibition of phosphatase PP1 relative to PP2A (phosphatase PP1): 10-50 fold less

Wnt3A
S33/37 phosphorylation (β-catenin [4]; Jurkat, HeLa and L cells): inhibition | levels of S37 mutated β-catenin (β-catenin [4]; SNU449 hepatoma cell line, conditioned medium 5 hr): did not affect | S45 phosphorylation (β-catenin [4]; all four cell lines (L, Jurkat, SNU449, HeLa), MG-132 or okadaic acid treated): inhibition | β-catenin level (stabilization) (β-catenin [4]; endogenous β-catenin in mouse L-cells, exogenous β-catenin in Jurkat lymphocytes, conditioned medium 5 hr): stabilized
